Here are results for 13 molecules from US7135466B2 (Kirin Beer Kabushiki Kaisha, priority 1999, dated 2006).

One experiment has as its target T1, c-kit (Homo sapiens, UniProt P10721).
T1 construct: MO7e (human megakaryocytic leukemia cell line) which had been arrested for 20 hr; endogenous in cells; host or cells: MO7e human megakaryocytic leukemia cell line
The experiment is described as follows: Inhibitory activity against c-kit autophosphorylation (MO7e cells, h-SCF). The following applies: MO7e cells, h-SCF 50 ng/ml; read-out: c-kit IC50. In kind it is cell-based. Put shortly:
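First, human megakaryocytic leukemia MO7e cells arrested 20 hr receive compound for one hour. Second, SCF stimulation (50 ng/ml) runs 5 min, after which cells are solubilized. Third, tyrosine-phosphorylated c-kit in the lysate is quantified by sandwich ELISA with absorbance at 450 nm.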

The target of the next experiment is T2, PDGF-Ra (Homo sapiens, UniProt P16234).
T2 construct: host or cells: G-292 human osteosarcoma cells
Nature of the experiment: Inhibitory activity against PDGF-Ra phosphorylation by PDGF-AA stimulation using G292. The class given is cell-based. The following applies: for IC50: Pharmacological Test Example 1, > means inhibition at indicated concentration not more than 50%, < and << not less than 50%, read-out: PDGF (E) IC50. In short, it runs like this:
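Phospho-PDGF-Ra ELISA: capture with PY-20 antiphosphotyrosine, detection with anti-PDGF-Ra and peroxidase secondary, read at 450 nm. Lysates came from G-292 osteosarcoma cells starved in 0.1% FBS, compound-treated 1 hr at 37° C, and stimulated with 50 ng/ml PDGF-AA for 5 min.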

T2 sequence (P16234 24-1089): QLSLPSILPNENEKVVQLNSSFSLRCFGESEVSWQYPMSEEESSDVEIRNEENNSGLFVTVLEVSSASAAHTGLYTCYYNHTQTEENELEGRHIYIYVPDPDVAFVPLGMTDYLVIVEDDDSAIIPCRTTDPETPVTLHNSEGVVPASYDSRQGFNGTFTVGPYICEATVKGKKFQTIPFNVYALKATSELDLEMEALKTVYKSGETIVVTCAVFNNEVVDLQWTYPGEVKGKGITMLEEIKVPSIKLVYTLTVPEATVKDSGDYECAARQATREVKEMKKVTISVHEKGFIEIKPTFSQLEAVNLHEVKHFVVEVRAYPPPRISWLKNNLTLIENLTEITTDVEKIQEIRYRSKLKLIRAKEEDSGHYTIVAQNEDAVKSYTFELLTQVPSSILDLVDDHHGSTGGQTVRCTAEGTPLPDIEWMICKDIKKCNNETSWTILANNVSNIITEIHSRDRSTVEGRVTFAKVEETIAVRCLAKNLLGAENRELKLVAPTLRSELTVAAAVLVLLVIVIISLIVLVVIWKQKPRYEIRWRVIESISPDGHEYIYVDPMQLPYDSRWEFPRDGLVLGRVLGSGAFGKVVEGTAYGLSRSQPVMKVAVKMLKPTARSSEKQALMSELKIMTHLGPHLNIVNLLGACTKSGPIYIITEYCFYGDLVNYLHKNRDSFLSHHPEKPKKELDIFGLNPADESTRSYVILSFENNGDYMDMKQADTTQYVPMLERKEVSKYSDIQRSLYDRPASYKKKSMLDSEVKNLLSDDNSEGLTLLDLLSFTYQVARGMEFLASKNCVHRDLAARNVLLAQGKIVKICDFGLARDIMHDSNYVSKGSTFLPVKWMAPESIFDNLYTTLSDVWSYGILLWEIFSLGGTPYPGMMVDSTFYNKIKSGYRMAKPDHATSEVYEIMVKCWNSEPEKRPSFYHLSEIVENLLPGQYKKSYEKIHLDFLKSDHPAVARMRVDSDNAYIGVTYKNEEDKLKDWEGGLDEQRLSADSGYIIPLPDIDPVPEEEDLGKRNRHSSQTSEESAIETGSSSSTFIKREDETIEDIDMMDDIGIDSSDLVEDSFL
T1 sequence (P10721 26-976): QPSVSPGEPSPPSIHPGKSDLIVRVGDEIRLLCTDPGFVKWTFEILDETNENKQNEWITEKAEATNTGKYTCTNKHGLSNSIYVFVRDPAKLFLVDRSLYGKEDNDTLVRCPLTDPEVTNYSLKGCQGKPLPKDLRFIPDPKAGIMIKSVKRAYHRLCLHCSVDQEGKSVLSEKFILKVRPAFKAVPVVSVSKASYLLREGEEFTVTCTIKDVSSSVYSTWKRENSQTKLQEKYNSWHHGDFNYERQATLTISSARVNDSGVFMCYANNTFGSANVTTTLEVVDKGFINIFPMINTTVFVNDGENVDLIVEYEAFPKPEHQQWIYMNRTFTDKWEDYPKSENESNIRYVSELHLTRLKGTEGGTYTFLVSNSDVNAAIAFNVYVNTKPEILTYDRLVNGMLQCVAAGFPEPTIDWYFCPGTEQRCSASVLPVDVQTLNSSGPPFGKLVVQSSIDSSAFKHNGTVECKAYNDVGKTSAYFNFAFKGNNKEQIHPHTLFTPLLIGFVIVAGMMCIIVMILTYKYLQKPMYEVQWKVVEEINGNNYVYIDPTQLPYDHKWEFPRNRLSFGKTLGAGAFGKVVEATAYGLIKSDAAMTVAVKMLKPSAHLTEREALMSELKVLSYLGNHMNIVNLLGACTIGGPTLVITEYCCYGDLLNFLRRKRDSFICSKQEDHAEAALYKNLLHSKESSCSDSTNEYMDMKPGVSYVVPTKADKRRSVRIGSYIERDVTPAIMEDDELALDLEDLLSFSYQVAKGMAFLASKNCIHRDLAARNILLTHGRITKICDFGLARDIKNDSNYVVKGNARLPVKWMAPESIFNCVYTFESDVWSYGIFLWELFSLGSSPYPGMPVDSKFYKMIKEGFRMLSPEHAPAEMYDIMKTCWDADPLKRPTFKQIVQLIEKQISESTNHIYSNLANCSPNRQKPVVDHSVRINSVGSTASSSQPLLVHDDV

For orientation: IC50 means the point on the concentration scale where inhibition reaches its midpoint. Consider `COc1cc2ncnc(Oc3ccc(NC(=O)OC(C)c4cccc(N(C)C)c4)cc3)c2cc1OC` (stereo not drawn) [Example 202, 1-[3-(Dimethylamino)phenyl]ethyl N-{4-[(6,7-dimethoxy-4-quinazolinyl)oxy]phenyl}carbamate], for which the IC50 came out at 610 nM at c-kit and 10 nM on PDGF-Ra.

Turning to `COc1cc2nccc(Oc3ccc(NC(=O)OCCOc4ccccc4F)cc3)c2cc1OC` [Example 203, 2-(2-Fluorophenoxy)ethyl N-{4-[(6,7-dimethoxy-4-quinolyl)oxy]phenyl}carbamate], the IC50 on c-kit was 169 nM; on PDGF-Ra it was 25 nM.

Turning to `COc1cc2nccc(Oc3ccc(NC(=O)OCCOc4ccccc4F)c(C)c3C)c2cc1OC` [Example 204, 2-(2-Fluorophenoxy)ethyl N-{4-[(6,7-dimethoxy-4-quinolyl)oxy]-2,3-dimethylphenyl}carbamate], the 50% inhibitory concentration (IC50) on c-kit was 79 nM; on PDGF-Ra, 28 nM.

Consider `COc1cc2ncnc(Oc3ccc(NC(=O)OCCOc4ccccc4F)cc3)c2cc1OC` [Example 206, 2-(2-Fluorophenoxy)ethyl N-{4-[(6,7-dimethoxy-4-quinazolinyl)oxy]phenyl}carbamate], for which the IC50 came out at 80 nM at c-kit and 13 nM at PDGF-Ra.

`COc1cc2nccc(Oc3ccc(NC(=O)OCCOc4cccc(F)c4)cc3)c2cc1OC` [Example 207, 2-(3-Fluorophenoxy)ethyl N-{4-[(6,7-dimethoxy-4-quinolyl)oxy]phenyl}carbamate]: the IC50 on c-kit came to 55 nM; at PDGF-Ra it was 31 nM.

In the case of `COc1cc2nccc(Oc3ccc(NC(=O)OCCOc4cccc(F)c4)c(C)c3C)c2cc1OC` [Example 208, 2-(3-Fluorophenoxy)ethyl N-{4-[(6,7-dimethoxy-4-quinolyl)oxy]-2,3-dimethylphenyl}carbamate], the IC50 stood at 53 nM on c-kit and 18 nM on PDGF-Ra.

`COc1cc2ncnc(Oc3ccc(NC(=O)OCCOc4cccc(F)c4)cc3)c2cc1OC` [Example 210, 2-(3-Fluorophenoxy)ethyl N-{4-[(6,7-dimethoxy-4-quinazolinyl)oxy]phenyl}carbamate]: the IC50 on c-kit is 95 nM; on PDGF-Ra, 16 nM.

For the molecule `COc1cc2ncnc(Oc3ccc(NC(=O)OCCCOc4ccccc4Cl)c(C)c3C)c2cc1OC` [Example 211, 3-(2-Chlorophenoxy)propyl N-{4-[(6,7-dimethoxy-4-quinazolinyl)oxy]-2,3-dimethylphenyl}-carbamate], the IC50 at c-kit came out at 43 nM; at PDGF-Ra it was 17 nM.

With `COc1cc2ncnc(Oc3ccc(NC(=O)OCCCOc4cccc(Cl)c4)c(C)c3C)c2cc1OC` [Example 212, 3-(3-Chlorophenoxy)propyl N-{4-[(6,7-dimethoxy-4-quinazolinyl)oxy]-2,3-dimethylphenyl}carbamate], the half-maximal inhibitory concentration (IC50) on c-kit turned out to be 70 nM; on PDGF-Ra it was 28 nM.

Consider `COc1cc2ncnc(Oc3ccc(NC(=O)OCCCOc4ccc(Cl)cc4)c(C)c3C)c2cc1OC` [Example 213, 3-(4-Chlorophenoxy)propyl N-{4-[(6,7-dimethoxy-4-quinazolinyl)oxy]-2,3-dimethylphenyl}-carbamate], for which the IC50 at c-kit turned out to be 61 nM; at PDGF-Ra, 21 nM.

For the molecule `COc1cccc(OC(=O)Nc2ccc(Oc3ccnc4cc(OC)c(OC)cc34)cc2)c1` [Example 214, 3-Methoxyphenyl N-{4-[(6,7-dimethoxy-4-quinolyl)oxy]phenyl}carbamate], the IC50 on c-kit was 47 nM; at PDGF-Ra, > 30 nM. For the same molecule, the “PDGF (E) inhibition (%) in >30( )” value on PDGF-Ra (figure in parentheses in >30( ), concentration not defined, presumably 30 nM) is given as 6%.

As for `CCCOC(=O)Nc1ccc(Oc2ccnc3cc(OC)c(OC)cc23)c(C)c1C` [Example 215, Propyl N-{4-[(6,7-Dimethoxy-4-quinolin)oxy]-2,3-dimethylphenyl}carbamate], the IC50 was < 30 nM at c-kit and 8 nM on PDGF-Ra.

As for `COc1cc2nccc(Oc3ccc(NC(=O)OC4CCCCC4)cc3)c2cc1OC` [Example 230, Cyclohexyl N-{4-[(6,7-dimethoxy-4-quinolyl)oxy]phenyl}carbamate], the IC50 at c-kit turned out to be 111 nM; at PDGF-Ra, 8 nM.
